# Columns and labels:
# [1] = tested on: female Syrian golden hamsters; experiment: post-coital/post-implantation antifertility activity, subcutaneous, pregnant hamsters; format: in vivo; conditions: days 4-8 of pregnancy; for activity according to the criteria (reduction of live fetuses in at least 60% of the treated animals): 10 mg/kg s.c. daily for 5 days, hamsters; for ED50: Mesocricetus auratus, sc, 120 h, s.c. hamsters, daily for 5 days, sesame oil, read-out: ED50 (100% activity, absence of live fetuses, in 50% of the animals)
# Procedure: (§1) Representative experiments for assessing antifertility activity were carried out with female Syrian golden hamsters weighing 100 to 130 g. The animals were mated and the presence of sperm in the vagina was taken as evidence of mating. The day sperm was detected and considered day one of pregnancy, since in our laboratories and those of other investigators 90 to 100% of animals that mate as evidenced by vaginal sperm are pregnant.
# (§2) Pregnancy was later confirmed at the time of autopsy by presence of fetuses or implantation sites in the uterus.
# (§3) Even if an animal aborts the fetus, implantation scars still remain as evidence that the animal has been pregnant.
# The animals were autopsied on day 14 of pregnancy and the uteri were examined for evidence of pregnancy (implantation sites, fetal resorptions or live fetuses), hemorrage, and evidence of abnormalities of the uterus, placenta or fetuses.
# hamsters = experiment: antifertility activity, oral route, pregnant hamsters; format: in vivo, Syrian golden hamsters; conditions: for reduction of live fetuses: oral dosage of 20 mg/Kg, hamsters
# Procedure: as §1, §2, §3
# The animals were autopsied on day 14 of pregnancy and the uteri were examined for evidence of pregnancy (implantation sites, fetal resorptions or live fetuses), hemorrage, and evidence of abnormalities of the uterus, placenta or fetuses. A compound was considered to be active if there was a reduction of live fetuses in at least 60% of the treated animals and the presence of implantation sites proves the animal to have been pregnant. […] The compounds were then studied for dose-activity relationships and the corresponding ED50 values i.e., 100% activity (absence of live fetuses) in 50% of the animals, were also determined. The following table reports the ED50 values of some representative compounds of the invention:
# Favorable results were also obtained by administering the compounds of the invention by oral route. The experiments for assessing this property were carried out on hamsters following the same procedure as above, with the obvious exception that the compounds were administered orally instead of subcutaneously.
SMILES,activity according to the criteria (reduction of live fetuses in at least 60% of the treated animals) [1],ED50 [1],"ED50 (hamsters; Mesocricetus auratus, po, 120 h, p.o. hamsters, daily for 5 days, days 4-8 of pregnancy)",reduction of live fetuses (hamsters)
"COc1cccc(-c2n[nH]c(-c3ccccc3CO)n2)c1 [Example 1, 5-(2-hydroxymethylphenyl)-3-(3-methoxyphenyl)-1H-1,2,4-triazole]",active,0.08 mg/kg,10 mg/kg,about 60%
"COc1cccc(-c2nc(-c3ccccc3C=O)n[nH]2)c1 [Example 3, 2-[5-(3-methoxyphenyl)-1H-1,2,4-triazol-3-yl]benzaldehyde]",active,0.1 mg/kg,–,about 60%

# Source: US4409388A, “1,2,4-Triazole derivatives, and their use as antifertility agents” (Gruppo Lepetit S.p.A., priority 1978, dated 1983)
